Each structure is given as a SMILES string. Read-outs that look alike come from different tables or passages of the source.

The results in this text go back to patent US12247045B2, “MAP4K4 inhibitors” (Imperial College Innovations Limited, priority 2018, dated 2025).

The subject of assay [1] is mice undergoing experimental myocardial infarction. Description: Infarct size in mice undergoing experimental myocardial infarction. The following applies: compared to vehicle control (DMSO). Format: in vivo. The procedure:
To test if target validation and compound development in hiPSC-CMs might predict success in a whole-animal context, mice undergoing experimental myocardial infarction were treated with Ex-78 or the vehicle control (DMSO) (FIG. 6). The suppression of cardiac muscle cell death achieved roughly a 55% reduction in infarct size as a proportion of the area at ischemic risk compared to control.

The target of the next assay is T1, NUAK1 (Homo sapiens, UniProt O60285).
T1 sequence (O60285 1-661): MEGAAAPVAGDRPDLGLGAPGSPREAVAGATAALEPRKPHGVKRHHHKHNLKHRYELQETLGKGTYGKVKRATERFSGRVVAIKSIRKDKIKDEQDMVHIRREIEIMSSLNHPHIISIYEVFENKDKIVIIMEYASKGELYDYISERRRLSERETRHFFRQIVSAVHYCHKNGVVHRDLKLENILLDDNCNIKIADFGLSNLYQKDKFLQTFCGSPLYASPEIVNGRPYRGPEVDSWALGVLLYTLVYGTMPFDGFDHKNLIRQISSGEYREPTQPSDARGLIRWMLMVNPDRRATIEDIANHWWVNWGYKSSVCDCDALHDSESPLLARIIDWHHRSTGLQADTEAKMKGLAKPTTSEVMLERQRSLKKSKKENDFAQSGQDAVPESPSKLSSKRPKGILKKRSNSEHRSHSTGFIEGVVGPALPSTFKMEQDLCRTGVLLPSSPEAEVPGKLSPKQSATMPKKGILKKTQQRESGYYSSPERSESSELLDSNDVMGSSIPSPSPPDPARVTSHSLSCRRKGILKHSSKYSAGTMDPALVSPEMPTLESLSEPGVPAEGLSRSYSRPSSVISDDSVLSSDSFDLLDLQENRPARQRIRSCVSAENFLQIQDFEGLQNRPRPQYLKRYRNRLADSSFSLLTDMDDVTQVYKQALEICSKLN
The assay can be described thus: Kinase selectivity panel, NUAK1. The format is biochemical. The source says:
(§1) The data in Table 42 also provides the fold selectivity of the two compounds in favour of MAP4K4 over the tested kinase. The fold selectivity is indicated in parenthesis.

Assay [2] concerns the target T2, human MAP4K4 kinase domain (Homo sapiens, UniProt O95819).
T2 construct: 0.5 nM human MAP4K4 kinase domain (Invitrogen); purchased Invitrogen
The assay can be described thus: MAP4K4 kinase activity, CisBio HTRF Transcreener ADP assay. Format: biochemical. A digest of the protocol:
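HTRF Transcreener ADP read-out (665/620 nm ratio) of ADP formed by 0.5 nM kinase domain with 1 μM biotin-myelin basic protein substrate and ATP at Km (10 μM), 1% DMSO, 2 h reaction. IC50 values binned as A ≤100 nM, B 100 nM–1 μM, C >1 μM.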
A general note: Time-resolved FRET reads energy transfer from a long-lived donor to a nearby acceptor.

In the next assay the target is T3, GLK/MAP4K3 (Homo sapiens, UniProt Q8IVH8).
T3 sequence (Q8IVH8 1-894): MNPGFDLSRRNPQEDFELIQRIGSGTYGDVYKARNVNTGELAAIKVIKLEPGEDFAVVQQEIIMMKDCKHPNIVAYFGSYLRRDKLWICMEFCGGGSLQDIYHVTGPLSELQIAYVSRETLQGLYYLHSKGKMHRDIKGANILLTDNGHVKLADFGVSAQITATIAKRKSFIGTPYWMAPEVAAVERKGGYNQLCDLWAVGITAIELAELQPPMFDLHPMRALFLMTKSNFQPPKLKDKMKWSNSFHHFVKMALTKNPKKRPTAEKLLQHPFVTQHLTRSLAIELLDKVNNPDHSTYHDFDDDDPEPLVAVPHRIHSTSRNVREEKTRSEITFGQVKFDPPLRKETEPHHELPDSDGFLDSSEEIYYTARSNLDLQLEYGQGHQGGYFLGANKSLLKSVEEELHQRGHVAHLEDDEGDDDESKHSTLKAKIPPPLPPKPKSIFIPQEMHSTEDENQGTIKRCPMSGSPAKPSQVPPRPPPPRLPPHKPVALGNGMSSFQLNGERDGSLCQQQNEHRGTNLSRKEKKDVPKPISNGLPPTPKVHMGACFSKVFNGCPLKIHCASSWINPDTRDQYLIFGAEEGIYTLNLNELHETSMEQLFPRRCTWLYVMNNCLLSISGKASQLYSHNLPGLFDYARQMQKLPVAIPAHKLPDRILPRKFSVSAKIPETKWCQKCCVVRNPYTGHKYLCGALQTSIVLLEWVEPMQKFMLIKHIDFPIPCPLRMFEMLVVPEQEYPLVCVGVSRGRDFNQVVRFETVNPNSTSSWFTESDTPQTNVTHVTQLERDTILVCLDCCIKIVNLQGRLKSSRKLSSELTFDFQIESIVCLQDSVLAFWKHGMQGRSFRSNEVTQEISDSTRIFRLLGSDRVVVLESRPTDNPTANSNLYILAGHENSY
Description: Kinase selectivity panel, GLK/MAP4K3. The format is biochemical.
Text: as §1

For a further assay, the target named is MLK1/MAP3K9 (Homo sapiens, UniProt P80192). The assay can be described thus: Kinase selectivity panel, MLK1/MAP3K9. Format: biochemical.
Text: as §1

The next assay concerns the target Aurora B (Homo sapiens, UniProt Q96GD4). Description: Kinase selectivity panel, Aurora B. The format is biochemical. The following applies: in favour of MAP4K4.
Text: as §1

T2 sequence (O95819 25-289 limits assumed): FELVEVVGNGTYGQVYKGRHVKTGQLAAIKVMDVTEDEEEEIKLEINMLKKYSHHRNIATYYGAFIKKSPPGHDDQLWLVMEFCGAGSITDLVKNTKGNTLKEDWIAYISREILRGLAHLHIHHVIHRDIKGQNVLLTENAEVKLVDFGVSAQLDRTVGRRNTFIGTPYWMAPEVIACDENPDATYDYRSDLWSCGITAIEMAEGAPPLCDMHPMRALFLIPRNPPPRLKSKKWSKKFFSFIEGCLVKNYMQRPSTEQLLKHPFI
MLK1/MAP3K9, sequence (P80192 whole entry): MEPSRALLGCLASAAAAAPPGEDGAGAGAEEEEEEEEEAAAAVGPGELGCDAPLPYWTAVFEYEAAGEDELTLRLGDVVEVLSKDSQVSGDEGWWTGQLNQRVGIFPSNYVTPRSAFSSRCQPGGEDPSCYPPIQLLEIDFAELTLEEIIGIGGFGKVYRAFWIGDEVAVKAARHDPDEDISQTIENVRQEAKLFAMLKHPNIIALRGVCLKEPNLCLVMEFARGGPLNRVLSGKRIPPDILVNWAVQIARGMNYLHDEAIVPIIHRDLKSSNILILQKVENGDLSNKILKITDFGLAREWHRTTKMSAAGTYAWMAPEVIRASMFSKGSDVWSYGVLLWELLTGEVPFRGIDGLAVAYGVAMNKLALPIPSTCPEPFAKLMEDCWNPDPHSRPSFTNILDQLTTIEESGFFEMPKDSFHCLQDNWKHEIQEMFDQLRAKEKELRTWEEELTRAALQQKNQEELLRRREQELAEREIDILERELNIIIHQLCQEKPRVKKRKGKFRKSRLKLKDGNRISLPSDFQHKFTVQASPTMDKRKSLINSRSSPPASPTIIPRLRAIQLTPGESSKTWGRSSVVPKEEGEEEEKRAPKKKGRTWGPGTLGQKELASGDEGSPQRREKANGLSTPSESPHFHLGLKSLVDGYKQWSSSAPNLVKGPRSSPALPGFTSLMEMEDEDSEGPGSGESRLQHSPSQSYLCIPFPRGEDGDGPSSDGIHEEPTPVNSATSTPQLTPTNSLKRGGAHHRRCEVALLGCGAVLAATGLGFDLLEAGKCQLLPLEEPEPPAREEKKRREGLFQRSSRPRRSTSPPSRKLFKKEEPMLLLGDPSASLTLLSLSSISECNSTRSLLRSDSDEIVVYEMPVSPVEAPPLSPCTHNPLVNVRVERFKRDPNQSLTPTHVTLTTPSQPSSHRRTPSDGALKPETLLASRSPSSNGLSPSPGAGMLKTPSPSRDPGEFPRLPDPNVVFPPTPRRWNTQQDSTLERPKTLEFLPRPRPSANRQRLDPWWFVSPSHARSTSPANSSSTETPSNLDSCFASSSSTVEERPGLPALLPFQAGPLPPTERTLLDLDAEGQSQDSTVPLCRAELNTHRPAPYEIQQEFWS
Aurora B, sequence (Q96GD4 whole entry): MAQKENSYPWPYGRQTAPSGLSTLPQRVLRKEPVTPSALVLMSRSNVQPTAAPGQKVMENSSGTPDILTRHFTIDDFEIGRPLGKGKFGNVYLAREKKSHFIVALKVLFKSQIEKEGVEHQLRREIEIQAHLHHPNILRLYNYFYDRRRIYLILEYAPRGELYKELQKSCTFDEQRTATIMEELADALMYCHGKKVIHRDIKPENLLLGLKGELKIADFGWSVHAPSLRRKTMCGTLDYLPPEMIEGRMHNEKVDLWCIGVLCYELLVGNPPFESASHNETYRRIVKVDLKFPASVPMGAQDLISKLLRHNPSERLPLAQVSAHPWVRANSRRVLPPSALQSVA

Regarding `CC(C)(O)CCOc1ccc(-c2cn(-c3cccnc3)c3nc[nH]c(=O)c23)cc1` [Ex-78, 5-(4-(3-hydroxy-3-methylbutoxy)phenyl)-7-(pyridin-3-yl)-3,7-dihydro-4H-pyrrolo[2,3-d]pyrimidin-4-one], in assay [1], the “reduction in infarct size as a proportion of the area at ischemic risk” value is ~55%. For the same molecule, the “fold selectivity MAP4K4 over NUAK1” value on NUAK1 (in favour of MAP4K4) is on record as “(16) fold”. The IC50 at NUAK1 (read-out: pIC50 NUAK1 (converted)) is 501 nM; in assay [2] (IC50 category, ATP at Km (10 μM), 0.5 nM kinase domain, 2 h, read-out: MAP4K4), ≤ 100 nM; in assay [2] (read-out: pIC50 MAP4K4 (converted)), 31.6 nM; on GLK/MAP4K3 (read-out: pIC50 GLK/MAP4K3 (converted)), 1580 nM; at MLK1/MAP3K9 (read-out: pIC50 MLK1/MAP3K9 (converted)) it was 126 nM. Further, the “fold selectivity MAP4K4 over GLK/MAP4K3” value on GLK/MAP4K3 (in favour of MAP4K4) is listed as “(50) fold”. For the same molecule, on MLK1/MAP3K9 (in favour of MAP4K4), the “fold selectivity MAP4K4 over MLK1/MAP3K9” value is reported as “(4) fold”. At Aurora B, the “fold selectivity MAP4K4 over Aurora B” value is on record as “(1000) fold”.
